“Also recorded” adds a separate entry of the source.
Columns and labels:
human p21 mRNA = test: In vitro cleavage assay of human p21 mRNA; assay type: biochemical; settings: in vitro cleavage of p21 mRNA (SEQ ID NO: 1); RNA substrate 500 nM, 37° C. 60 min, agarose gel
Summary of the method: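 RNA substrates were T7 in vitro transcripts from PCR-amplified cDNA (source RNA: senescent IMR-90 cells), gel-purified. Substrate at 500 nM final was incubated with DNAzyme (10 μM stock) in reaction buffer (10× stock: 50 mM Tris-HCl pH 7.4, 100 mM NaCl, 10 mM MgCl2) for 60 min at 37 °C. Cleavage products were resolved on 1.5% agarose TBE gels and quantified by densitometry.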

p21 mRNA = test: Quantitative RT-PCR of p21 mRNA in senescent cells; assay type: cell-based, human; settings: over 24 hours following treatment, 2000 nM (FIG. 5D)
Experimental: Total RNA was extracted from IMR-90 cells using NucleoSpin® RNA (Macherey-Nagel™), according to the manufacturer protocol. Complementary DNA was prepared using the M-MLV Reverse Transcriptase (Promega), according to the manufacturer protocol. Quantitative real-time PCR was performed using the SYBR Green PCR master-mix (Applied Biosystems) on a CFX96 Real-Time PCR System (Bio Rad). See primer sequences in Table 1, above.

p21 protein [1] = test: Immunofluorescence of p21 protein in senescent cells; assay type: cell-based, human; settings: 48 hour treatment, 1000 nM, compared to control scramble (FIG. 5G)
Experimental: 48 hours following transfection. IMR-90 cells were fixed by PFA 4% following the indicated treatments. Cells were blocked and incubated with antibodies against human p21 (CST) in blocking solution. Cells were then incubated with Dylight-549-conjugated secondary antibody (Jackson ImmunoResearch) and counterstained with DAPI (Sigma). Images were acquired using Nikon Eclipse Ti2 microscope at ×10 magnification.
(§1) Alternatively, cells were fixed with 4% Formaldehyde for 15 minutes, permeabilized in 0.2% […] for 5 minutes and blocked with 2% bovine serum albumin (BSA) for 30 min in room temperature. Cells were then incubated with a primary or with a conjugated antibody over-night or for 3 hours respectively. For unconjugated antibodies, a corresponding fluorescently-labelled secondary antibody was added for 1 hour, followed by Hoechst counterstaining. Cells were washed with PBS three times following each step. Images were acquired using Nikon Eclipse Ti2 microscope at ×10 magnification.
(§2) Antibodies were diluted in blocking solution as indicated below: 53BP1 antibody (Novus biologicals NB100-304, 1:800), Phospho-histone H2AX antibody (Cell signaling #2577, 1:800), p21 Waf1/Cip1 antibody (Cell signaling #8865, 1:500), p16 antibody (Santa Cruz sc-56330, 1:200), Alexa Fluor-488 goat anti mouse (Thermo Fisher A11029, 1:1000).

[2] = system: cancer cell lines (HepG2, A549, Panc1, HCT-116); test: Chemotherapy and DNAzyme combination, several cancer cell lines; assay type: cell-based; settings: therapy induced senescence, viability 72 hours following treatment (FIG. 12F)
Description: (§3) PANC-1 cells were maintained in DMEM medium supplemented with 10% fetal bovine serum, 1% penicillin-streptomycin and 1% sodium pyruvate. HCT116 cells were maintained in McCoy's 5A medium supplemented with 10% fetal bovine serum and 1% penicillin-streptomycin. A549 cells were maintained in F-12K Medium supplemented with 10% fetal bovine serum and 1% penicillin-streptomycin. HepG2 cell were maintained Eagle's Minimum Essential Medium, supplemented in 10% fetal bovine serum, 1% penicillin-streptomycin and 1% sodium pyruvate. All cancer cell lines were incubated in 5% C02 at 37° C.
(§4) Cancer cell lines were seeded in 96 well plates 24 hours before treatment. Chemotherapies were applied at indicated concentrations either alone or as combination with DNAzyme-lipofectamine complex. 72 hours following treatment, cell viability was measured using Prestoblue® reagent. Chemotherapies were diluted in cell medium to the indicated concentrations. 24 hours following seeding, culture medium was replaced with chemotherapy containing medium, immediately followed by transfection of DNAzyme as described above. 72 hours following treatment, cell viability was measured using Prestoblue® reagent.
(§5) The following chemotherapies were used: Etoposide (Sigma), Palbociclib (Sigma), Doxorubicin (Sigma), Cisplatin (Sigma), ABT-263 (Selleckchem). All compounds were dissolved and stored according to manufacturer instructions.

HepG2 cells = test: Chemotherapy and DNAzyme combination, HepG2; assay type: cell-based
Description: as §3, §4, §5

cancer cells (A549) = test: Dose response on A549 cancer cells; assay type: cell-based; settings: A549, scramble versus DNAzyme 1670 (FIG. 16B)
Description: as §3, §4

p21 protein [3] = test: p21 protein staining in HepG2 cells; assay type: cell-based, human; settings: Etoposide alone or together with DNAzyme (FIGS. 15A-B)
Experimental: as §1, §2

p21 protein [4] = test: p21 protein in HepG2 cell lysate (IF and ELISA); assay type: cell-based, human; settings: Etoposide alone or with scramble or DNAzyme 1670 (FIGS. 15B-C)
Experimental: p21 protein quantification was analyzed using (Human p21 ELISA Kit—ab214658, Abcam), according to the manufacturer's instructions. The cell pellets were incubated with Cell Extraction Buffer PTR on ice for 20 minutes. Following Centrifuge at 18,000×g for 20 minutes, the sample protein concentrations were quantified using a BCA protein assay. The samples and Antibody Cocktail were added to appropriate wells and incubated for one hour at room temperature (RT), followed by three washes with Wash Buffer and incubation with TMB Development Solution for 15 minutes at RT. Then, the Stop Solution was added, the samples were incubated for 1 minute, and the samples were read by absorbance at 450 nm using plate reader.

[5] = DNAzyme stability analysis in serum; assay type: in vitro ADME
Experimental: DNAzyme stability was assessed by incubation with PBS, plasma and BALF (Bronchoalveolar Lavage Fluid). A comparison between unmodified and 3′Inverted dT modification was made. Following incubation for the indicated time points, samples were analyzed using gel electrophoresis. Quantification compared to time 0 was performed using Image Lab software (Bio Rad).

Substance: DNAzyme 1670: SEQ ID NO: 54: GGGAAAGGAggctagctacaacgaAAGGGGGAG (DNA GGGAAAGGAGGCTAGCTACAACGAAAGGGGGAG; DNA, backbone and methylation of C not given here)
- Validated cleavage (human p21 mRNA): time and concentration dependent; also recorded: validated for mediating cleavage of p21 mRNA
- p21 mRNA knockdown (p21 mRNA): 57%
- p21 protein levels (p21 protein [1]): significantly reduced
- efficacy of sub-clinical Etoposide in combination with DNAzyme [2]: comparable to that of clinical Etoposide dose
- sub-clinical doses of various chemotherapies in combination with DNAzyme, synergy (HepG2 cells; HepG2 (FIG. 12G)): synergistic activity
- combination treatment of Etoposide and DNAzyme, synergy (HepG2 cells; liver cancer cell line HepG2 (FIG. 12F)): good synergistic results
- senolytic effect, dose response (cancer cells (A549)): senolytic effect in a wide range of doses; also recorded: effective at much lower concentration
- p21 protein immunofluorescent staining in HepG2 cells (p21 protein [3]): significant decrease in staining; also recorded: p21 upregulation is blocked
- p21 protein in cell lysate (p21 protein [4]): can counteract the upregulation in p21 levels
- time to complete degradation in serum ([5]; unmodified DNAzyme, from the start of incubation (FIG. 13A)): 48 h
- time to degradation in serum ([5]; with 3′ inverted dT modification versus unmodified (FIG. 13B)): significantly increased

— patent US11879140B2, “P21 mRNA targeting DNAzymes” (1E Therapeutics Ltd., priority 2020, dated 2024)
